Among the data in ChEMBL document CHEMBL1159293, “Additional bioactive acetogenins, annomutacin and (2,4-trans and cis)-10R-annonacin-A-ones, from the leaves of Annona muricata” (J Nat Prod, 1995) are LC50 and EC50 values, retold here.

A short description of data set [1]: (§1) Toxicity to brine shrimp. It is filed as organism-based. As to conditions: artemia, in vivo.
In another data set the test system is Artemia. Described as §1. It counts as organism-based. As to conditions: in vivo.
A further data set relates to A549. Description: Cytotoxicity against human A549 cells after 7 days by MTT assay. It is filed as functional. As to conditions: A549, 168 h, read-out: ED50 (the source's name). On the technique in general: Tetrazolium dyes change colour on reduction, which living cells bring about.
The next data set concerns MCF7. Description: Cytotoxicity against human MCF7 cells after 7 days by MTT assay. It is filed as functional. As to conditions: MCF7, 168 h, read-out: ED50 (the source's name).
The subject of the next data set is HT-29. Description: Cytotoxicity against human HT-29 cells after 7 days by MTT assay. It counts as functional. Conditions: HT-29, 168 h, read-out: ED50 (the source's name).

Molecules are shown by their SMILES. In brackets after ≈: the same amount, converted by molar mass. A value given as a limit tells only on which side of the number the result lay.

Compound `COc1cccc2c1C(=O)c1c(O)c3c(c(O)c1C2=O)C[C@@](O)(C(=O)CO)C[C@@H]3O[C@H]1C[C@H](N)[C@H](O)[C@H](C)O1` [DOXORUBICIN] showed an LC50 in data set [1] of 0.313 µg/mL (≈ 0.576 µM).

As to `CCCCCCCCCCCC[C@H](O)[C@@H]1CC[C@@H]([C@@H](O)CCCCCCC(O)CCCCC[C@@H](O)CC2=C[C@H](C)OC2=O)O1` (stereo partly drawn) [ANNOMONTACIN], in the data set with Artemia, the LC50 is on record as 3.91 ×10⁻² ug/ml. Besides, the EC50 with A549 was 0.0157 µg/mL (≈ 0.0251 µM); in the data set with MCF7, above 1 µg/mL; in the data set on HT-29 it was above 1 µg/mL.

The compound `CCCCCCCCCCCC[C@H](O)[C@H]1CC[C@H]([C@H](O)CCCC[C@H](O)CCCCC[C@@H]2C[C@H](CC(C)=O)C(=O)O2)O1` yielded an LC50 in data set [1] of 0.112 µg/mL (≈ 0.188 µM). The values for the EC50 with A549, in the data set with MCF7 and with HT-29 were 0.174 µg/mL (≈ 0.292 µM), 0.57 µg/mL (≈ 0.955 µM) and above 1 µg/mL, respectively.

For the compound `CCCCCCCCCCCC[C@H](O)[C@H]1CC[C@H]([C@H](O)CCCC[C@H](O)CCCCC[C@@H]2C[C@@H](CC(C)=O)C(=O)O2)O1`, in data set [1], the LC50 was 0.112 µg/mL (≈ 0.188 µM). The EC50 in the data set on A549 was 0.174 µg/mL (≈ 0.292 µM); in the data set on MCF7, 0.57 µg/mL (≈ 0.955 µM); in the data set on HT-29 it was above 1 µg/mL.
